Source: patent publication US20130109682A1, “CYCLIC ETHER COMPOUNDS USEFUL AS KINASE INHIBITORS” (NOVARTIS AG, priority 2010, published 2013)

How the values were obtained:
PIM1 = PIM1 (Homo sapiens, UniProt P11309); test: KinaseGlo Pim1 ATP depletion assay; assay type: biochemical
In short: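 2.5 nM PIM1 preincubated 15 min with compound and 40 μM BAD peptide in 50 mM HEPES pH 7.5, 5 mM MgCl2, 1 mM DTT, 0.05% BSA, 2.5% DMSO. The reaction was started with 20 μM ATP (final) and run to about 50% ATP depletion. Remaining ATP read by KinaseGlo Plus luminescence to give IC50.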

PIM2 = PIM2 (Homo sapiens, UniProt Q9P1W9); test: KinaseGlo Pim2 ATP depletion assay; assay type: biochemical
PIM2, sequence (Q9P1W9 whole entry): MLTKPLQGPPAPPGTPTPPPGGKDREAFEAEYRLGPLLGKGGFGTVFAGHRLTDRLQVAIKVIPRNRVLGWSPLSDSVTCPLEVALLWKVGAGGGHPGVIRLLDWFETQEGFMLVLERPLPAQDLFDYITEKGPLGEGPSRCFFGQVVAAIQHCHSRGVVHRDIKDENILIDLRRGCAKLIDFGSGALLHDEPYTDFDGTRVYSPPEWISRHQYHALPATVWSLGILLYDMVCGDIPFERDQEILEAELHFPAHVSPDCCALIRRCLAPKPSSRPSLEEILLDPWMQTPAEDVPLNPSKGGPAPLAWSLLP
In short: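 Luminescent ATP-depletion read-out of PIM2 phosphorylating BAD peptide (RSRHSSYPAGT-OH). Final conditions: 5 nM PIM2, 4 μM ATP, 10 μM peptide, 2.5% DMSO in 50 mM HEPES pH 7.5, 5 mM MgCl2, 1 mM DTT, 0.05% BSA. Enzyme–peptide preincubated 15 min with compound; reaction run to ~50% ATP depletion.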

PIM3 = PIM3 (Homo sapiens, UniProt Q86V86); test: KinaseGlo Pim3 ATP depletion assay; assay type: biochemical
In short: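 Kinase was preincubated 15 min with BAD peptide in HEPES pH 7.5/MgCl2/DTT/BSA before ATP was added. Final concentrations were 40 μM ATP, 100 μM BAD peptide and 2.5% DMSO, with 5 nM enzyme. The reaction ran to ~50% ATP depletion and remaining ATP was read by KinaseGlo Plus luminescence.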

GSK3β = GSK3β (Homo sapiens, UniProt P49841); test: GSK3β ATP depletion assay; assay type: biochemical; conditions: read-out: GSK3b IC50
GSK3β, sequence (P49841 whole entry, species assumed): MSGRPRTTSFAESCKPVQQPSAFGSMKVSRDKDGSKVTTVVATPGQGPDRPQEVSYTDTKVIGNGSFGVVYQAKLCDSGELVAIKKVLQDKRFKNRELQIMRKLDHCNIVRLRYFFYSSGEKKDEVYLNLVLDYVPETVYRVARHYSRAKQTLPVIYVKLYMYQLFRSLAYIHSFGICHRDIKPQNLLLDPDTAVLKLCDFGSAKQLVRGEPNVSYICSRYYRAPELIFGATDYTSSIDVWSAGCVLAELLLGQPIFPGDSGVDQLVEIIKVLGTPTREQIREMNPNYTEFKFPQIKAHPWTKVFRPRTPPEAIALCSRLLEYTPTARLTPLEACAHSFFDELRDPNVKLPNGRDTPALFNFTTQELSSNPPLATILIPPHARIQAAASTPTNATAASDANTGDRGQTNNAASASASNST
In short: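 Human GSK3β (5 nM) preincubated 15 min with 10 μM biotinylated phospho-CREB peptide in pH 7.5 Tris buffer (15 mM MgCl2, 1 mM DTT, 0.1% BSA, 2.5% DMSO). Reaction started with 2 μM ATP and run to about 50% ATP depletion. Remaining ATP measured by KinaseGlo luminescence.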

[1] = system: KMS11 (human myeloma cell line); test: Cell proliferation assay (CellTiter-Glo), KMS11; assay type: cell-based; conditions: Homo sapiens, KMS-11; KMS11-Luc cells
In short: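 KMS11 cells in IMDM with 10% FBS and sodium pyruvate, seeded at 2000 cells/well on assay day. Compound added at 2× to equal volume of cells, incubated 3 days at 37° C. Viability read by CellTiter-Glo luminescence; EC50 derived.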

PIM1, sequence (P11309 whole entry): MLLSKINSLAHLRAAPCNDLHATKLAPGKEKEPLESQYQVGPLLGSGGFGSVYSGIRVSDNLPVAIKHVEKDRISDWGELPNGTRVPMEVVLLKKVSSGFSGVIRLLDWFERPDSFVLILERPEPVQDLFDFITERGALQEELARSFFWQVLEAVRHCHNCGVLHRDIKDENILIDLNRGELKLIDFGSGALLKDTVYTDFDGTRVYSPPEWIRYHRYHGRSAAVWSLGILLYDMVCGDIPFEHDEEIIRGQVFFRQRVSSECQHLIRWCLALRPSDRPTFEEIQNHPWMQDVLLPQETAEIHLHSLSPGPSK

Row | SMILES | IC50 (PIM1) [nM] | IC50 (PIM2) [nM] | IC50 (PIM3) [nM] | IC50 (GSK3β) [nM] | EC50 [1] [nM]
1 | Nc1cnc(-c2c(F)cccc2F)nc1C(=O)Nc1cnccc1[C@@H]1C[C@H](O)[C@]2(O)CCCC[C@@H]2O1 [Example 175, 5-amino-2-(2,6-difluorophenyl)-N-(4-((2S,4S,4aR,8aS)-4,4a-dihydroxyoctahydro-2H-chromen-2-yl)pyridin-3-yl)pyrimidine-4-carboxamide] | 35.7 | 58.7 | 57.4 | 598 | > 10000
2 | CC[C@]1(O)[C@H](O)C[C@H](c2ccncc2NC(=O)c2c[nH]cc(-c3ccccc3)c2=O)O[C@@H]1C [Example 179, N-(4-((2R,4R,5S,6R)-5-ethyl-4,5-dihydroxy-6-methyltetrahydro-2H-pyran-2-yl)pyridin-3-yl)-4-oxo-5-phenyl-1,4-dihydropyridine-3-carboxamide] | 259 | 3080 | 132 | 2690 | > 10000
3 | Nc1cnc(-c2c(F)cccc2F)nc1C(=O)Nc1cnccc1[C@@H]1C[C@H](O)[C@]2(O)CCC[C@@H]2O1 [Example 182, 5-amino-2-(2,6-difluorophenyl)-N-(4-((2S,4S,4aR,7aS)-4,4a-dihydroxyoctahydrocyclopenta[b]pyran-2-yl)pyridin-3-yl)pyrimidine-4-carboxamide] | 539 | 2780 | 951 | 2670 | > 10000
4 | O=C(Nc1cnccc1[C@@H]1C[C@H](O)[C@]2(O)CCCC[C@@H]2O1)c1ccnn(-c2ccccc2F)c1=O [Example 191, N-(4-((2S,4S,4aR,8aS)-4,4a-dihydroxyoctahydro-2H-chromen-2-yl)pyridin-3-yl)-2-(2-fluorophenyl)-3-oxo-2,3-dihydropyridazine-4-carboxamide] | 1780 | > 25000 | 2370 | 1080 | > 10000
5 | O=C(Nc1cnccc1[C@@H]1C[C@H](O)[C@]2(O)CCC[C@@H]2O1)c1cccn(-c2ccccc2)c1=O [Example 192, N-(4-((2S,4S,4aR,7aS)-4,4a-dihydroxyoctahydrocyclopenta[b]pyran-2-yl)pyridin-3-yl)-2-oxo-1-phenyl-1,2-dihydropyridine-3-carboxamide] | > 25000 | > 25000 | > 25000 | > 25000 | > 10000
6 | CC[C@H]1O[C@@H](c2ccncc2NC(=O)c2cccn(-c3ccccc3)c2=O)C[C@@H](O)[C@@H]1O [Example 193, N-(4-((2R,4R,5S,6R)-6-ethyl-4,5-dihydroxytetrahydro-2H-pyran-2-yl)pyridin-3-yl)-2-oxo-1-phenyl-1,2-dihydropyridine-3-carboxamide] | 5850 | > 25000 | 7570 | > 25000 | > 10000
7 | O=C(Nc1cnccc1[C@H]1C[C@@H](O)[C@@]2(O)CCC[C@H]2O1)c1cccn(-c2ccccc2)c1=O [Example 194, N-(4-((2R,4R,4aS,7aR)-4,4a-dihydroxyoctahydrocyclopenta[b]pyran-2-yl)pyridin-3-yl)-2-oxo-1-phenyl-1,2-dihydropyridine-3-carboxamide] | 2210 | > 25000 | 2850 | 13300 | > 10000
8 | O=C1CC[C@H]2O[C@@H](c3ccncc3NC(=O)c3ccc(F)c(-c4c(F)cccc4F)n3)C[C@@H](O)[C@H]2N1 [Example 198, 6-(2,6-difluorophenyl)-5-fluoro-N-(4-((2R,4R,4aR,8aR)-4-hydroxy-6-oxooctahydro-2H-pyrano[3,2-b]pyridin-2-yl)pyridin-3-yl)picolinamide] | 2.6 | 53.6 | 19.2 | 24 | > 10000
9 | CC[C@H]1O[C@@H](c2ccncc2NC(=O)c2ccc(F)c(-c3c(F)cccc3F)n2)C[C@@H](O)[C@H]1C#N [Example 200, N-(4-((2R,4R,5R,6R)-5-cyano-6-ethyl-4-hydroxytetrahydro-2H-pyran-2-yl)pyridin-3-yl)-6-(2,6-difluorophenyl)-5-fluoropicolinamide] | 7.8 | 46.7 | 33.9 | 1200 | > 10000

Now from value to molecule:

Row | IC50 (PIM1) [nM] | IC50 (PIM2) [nM] | IC50 (PIM3) [nM] | IC50 (GSK3β) [nM] | EC50 [1] [nM] | SMILES
10 | 38.6 | 171 | 162 | 1060 | 6830 | O=C(Nc1cnccc1[C@@H]1C[C@H](O)[C@]2(O)CCCC[C@@H]2O1)c1ccc(F)c(-c2c(F)cccc2F)n1 [Example 177, 6-(2,6-difluorophenyl)-N-(4-((2S,4S,4aR,8aS)-4,4a-dihydroxyoctahydro-2H-chromen-2-yl)pyridin-3-yl)-5-fluoropicolinamide]
11 | 8.4 | 10.6 | 7.2 | 101 | > 10000 | Nc1cnc(-c2c(F)cccc2F)nc1C(=O)Nc1cnccc1[C@H]1C[C@@H](O)[C@@]2(O)CCC[C@H]2O1 [Example 180, 5-amino-2-(2,6-difluorophenyl)-N-(4-((2R,4R,4aS,7aR)-4,4a-dihydroxyoctahydrocyclopenta[b]pyran-2-yl)pyridin-3-yl)pyrimidine-4-carboxamide]
12 | 825 | 9100 | 492 | 4210 | > 10000 | O=C(Nc1cnccc1[C@H]1C[C@@H](O)[C@@]2(O)CCC[C@H]2O1)c1c[nH]cc(-c2ccccc2)c1=O [Example 181, N-(4-((2R,4R,4aS,7aR)-4,4a-dihydroxyoctahydrocyclopenta[b]pyran-2-yl)pyridin-3-yl)-4-oxo-5-phenyl-1,4-dihydropyridine-3-carboxamide]
13 | > 25000 | > 25000 | > 25000 | > 25000 | > 10000 | O=C(Nc1cnccc1[C@@H]1C[C@H](O)[C@]2(O)CCC[C@@H]2O1)c1c[nH]cc(-c2ccccc2)c1=O [Example 184, N-(4-((2S,4S,4aR,7aS)-4,4a-dihydroxyoctahydrocyclopenta[b]pyran-2-yl)pyridin-3-yl)-4-oxo-5-phenyl-1,4-dihydropyridine-3-carboxamide]
14 | 34.5 | 318 | 144 | 731 | > 10000 | O=C(Nc1cnccc1[C@@H]1C[C@H](O)[C@]2(O)CCC[C@@H]2O1)c1ccc(F)c(-c2c(F)cccc2F)n1 [Example 188, 6-(2,6-difluorophenyl)-N-(4-((2S,4S,4aR,7aS)-4,4a-dihydroxyoctahydrocyclopenta[b]pyran-2-yl)pyridin-3-yl)-5-fluoropicolinamide]
15 | 33.9 | 494 | 35.5 | 38.5 | > 10000 | O=C(Nc1cnccc1[C@H]1C[C@@H](O)[C@@]2(O)CCCC[C@H]2O1)c1ccnn(-c2ccccc2F)c1=O [Example 190, N-(4-((2R,4R,4aS,8aR)-4,4a-dihydroxyoctahydro-2H-chromen-2-yl)pyridin-3-yl)-2-(2-fluorophenyl)-3-oxo-2,3-dihydropyridazine-4-carboxamide]
16 | 149 | 3210 | 132 | 383 | > 10000 | O=C(Nc1cnccc1[C@H]1C[C@@H](O)[C@@]2(O)CCC[C@H]2O1)c1ccnn(-c2ccccc2F)c1=O [Example 201, N-(4-((2R,4R,4aS,7aR)-4,4a-dihydroxyoctahydrocyclopenta[b]pyran-2-yl)pyridin-3-yl)-2-(2-fluorophenyl)-3-oxo-2,3-dihydropyridazine-4-carboxamide]
17 | 754 | 6910 | 1100 | 4400 | > 10000 | CC[C@H]1O[C@@H](c2ccncc2NC(=O)c2c[nH]cc(-c3ccccc3F)c2=O)C[C@@H](O)[C@@H]1O [Example 202, N-(4-((2R,4R,5S,6R)-6-ethyl-4,5-dihydroxytetrahydro-2H-pyran-2-yl)pyridin-3-yl)-5-(2-fluorophenyl)-4-oxo-1,4-dihydropyridine-3-carboxamide]
18 | 6610 | > 250000 | 23800 | 543 | > 10000 | O=C(Nc1cnccc1[C@@H]1C[C@H](O)[C@]2(O)CCC[C@@H]2O1)c1ccnn(-c2ccccc2F)c1=O [Example 203, N-(4-((2S,4S,4aR,7aS)-4,4a-dihydroxyoctahydrocyclopenta[b]pyran-2-yl)pyridin-3-yl)-2-(2-fluorophenyl)-3-oxo-2,3-dihydropyridazine-4-carboxamide]
19 | 0.5 | 2.8 | 2 | 46.2 | 5310 | O=C(Nc1cnccc1[C@H]1C[C@@H](O)[C@@]2(O)CCC[C@H]2O1)c1ccc(F)c(-c2c(F)cccc2F)n1 [Example 204, 6-(2,6-difluorophenyl)-N-(4-((2R,4R,4aS,7aR)-4,4a-dihydroxyoctahydrocyclopenta[b]pyran-2-yl)pyridin-3-yl)-5-fluoropicolinamide]
